Measured values taken from patent publication US20050165074A1, “Amide derivatives as C-KIT modulators” (Ambit Biosciences Corporation, priority 2003, published 2005).

The compounds below were run against KIT (JMminus) (Homo sapiens, UniProt P10721) (assay: Binding constant (Kd) measurement, phage-displayed kinase competition binding assay, KIT (JMminus)). Settings: c-Kit, JMminus construct.
From the text: (§1) The term “ND” represents non-determined values.

Sequence of KIT (JMminus) (P10721 589-937 limits assumed): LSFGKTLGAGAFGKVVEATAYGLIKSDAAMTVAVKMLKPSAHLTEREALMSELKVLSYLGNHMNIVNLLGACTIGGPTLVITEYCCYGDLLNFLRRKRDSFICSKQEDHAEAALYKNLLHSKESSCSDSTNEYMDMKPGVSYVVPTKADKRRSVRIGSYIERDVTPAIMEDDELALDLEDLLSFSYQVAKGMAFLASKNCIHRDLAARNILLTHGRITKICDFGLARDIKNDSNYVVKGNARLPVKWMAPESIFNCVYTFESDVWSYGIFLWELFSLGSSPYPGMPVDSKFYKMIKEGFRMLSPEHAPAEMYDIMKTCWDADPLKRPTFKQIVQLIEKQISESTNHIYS

Row | SMILES | Kd [nM]
1 | Cc1nn(C)c(Cl)c1C(=O)Nc1ccc(CC(=O)Nc2cc(C(C)(C)C)on2)cc1 | < 100
2 | CSc1ncc(Br)c(C(=O)Nc2ccc(CC(=O)Nc3cc(C(C)(C)C)on3)cc2)n1 | < 100
3 | CC(C)(C)c1cc(NC(=O)Cc2ccc(NC(=O)c3ccc4cnccc4n3)cc2)no1 | < 100
4 | Cn1cc(C(=O)Nc2ccc(CC(=O)Nc3cc(C(C)(C)C)on3)cc2)c2ccccc21 | < 100
5 | CC(C)(C)c1cc(NC(=O)Cc2ccc(NC(=O)c3cccc4cccnc34)cc2)no1 | 100 to 1000
6 | CC(C)(C)c1cc(NC(=O)Cc2ccc(NC(=O)c3cnc4ccccc4c3)cc2)no1 | < 100

Each compound was assayed against KIT (DKIN) (Homo sapiens, UniProt P10721) (assay: Binding constant (Kd) measurement, phage-displayed kinase competition binding assay, KIT (DKIN)). Settings: c-Kit, DKIN construct.
Sequence of KIT (DKIN) (P10721 589-937 limits assumed): as above
From the text: as §1

Row | SMILES | Kd [nM]
7 | COc1ccc(CC(=O)Nc2cc(C(C)(C)C)no2)cc1 | 100 to 1000
8 | CC(C)(C)c1cc(NC(=O)Cc2ccc(OCc3ccccc3)cc2)on1 | 100 to 1000
9 | COc1cccc2cc([C@H](C)C(=O)Nc3cc(C(C)(C)C)on3)ccc12 | 1000 to 10000
10 | CC(C)(C)c1cc(NC(=O)Cc2ccc(F)cc2)on1 | 1000 to 10000
11 | CC(C)(C)c1cc(NC(=O)Cc2ccc(Cl)cc2)on1 | 1000 to 10000
12 | CC(C)(C)c1cc(NC(=O)Cc2ccc(Br)cc2)on1 | 100 to 1000
